According to patent US20020128326A1, “TOPICAL IMMUNOMODULATING COMPOSITIONS FOR TREATMENT OF AIDS, HEPATITIS B&C, OTHER INFECTIOUS DISEASES, AND CANCER” (priority 1998, published 2002):

Key:
HIV-1 = experiment: HIV viral load in patients sensitized and rechallenged topically; assay type: in vivo, human
Description: As examples of the HIV viral load reducing effects of the subject compositions, two patients were sensitized with 0.400% diphenylcyclopropenone in a vehicle consisting of equal parts of polyoxysorbitan 20 monooleate and isopropyl myristate and subsequently rechallenged with 0.100% diphenylcyclopropenone in the same vehicle two weeks, four weeks and eight weeks later.

[1] = rodents; cited from earlier work
[2] = cited from earlier work

SMILES | HIV-1 RNA Copies/1.0 ml Plasma (HIV-1; Patient #1, Baseline) | HIV-1 RNA Copies/1.0 ml Plasma (HIV-1; Patient #1, Eight Weeks, sensitized 0.400%, rechallenged 0.100% topically) [Copies/1.0 ml Plasma] | HIV-1 RNA Copies/1.0 ml Plasma (HIV-1; Patient #1, Four Weeks, sensitized 0.400%, rechallenged 0.100% topically) [Copies/1.0 ml Plasma] | HIV-1 RNA Copies/1.0 ml Plasma (HIV-1; Patient #1, Two Weeks, sensitized 0.400%, rechallenged 0.100% topically) [Copies/1.0 ml Plasma] | HIV-1 RNA Copies/1.0 ml Plasma (HIV-1; Patient #2, Baseline) [Copies/1.0 ml Plasma] | HIV-1 RNA Copies/1.0 ml Plasma (HIV-1; Patient #2, Eight Weeks, sensitized 0.400%, rechallenged 0.100% topically) [Copies/1.0 ml Plasma] | LD/50 [1] [mg/kg] | toxic effects with repeated human use [2]
O=c1c(-c2ccccc2)c1-c1ccccc1 [diphenylcyclopropenone] | 400 Copies Copies/1.0 ml Plasma | 79 | 60 | 118 | 440 | 351 |  | 
CC(C)=O [Acetone] |  |  |  |  |  |  | 10.7 | epidermal erythema, dryness, headache, bronchial irritation, CNS effects including fatigue and excitement
